Source: patent US20240299446A1 (priority 2023, published 2024)
Entries after “also recorded” stand apart in the source; their conditions may differ. Marks after values point to notes of the source that are not given here.

Columns and labels:
ovariectomy (OVX) rats [1] = assay: Blood markers  (17β-estradiol, osteocalcin, CTx) in ovariectomized rats; assay type: in vivo, Sprague-Dawley rats; conditions: for C-terminal telopeptide: serum CTx
Experimental: Osteocalcin levels were measured using a sandwich ELISA kit (Biomedical Technologies Inc., Stoughton, USA), while CTx levels were measured using a serum RatLaps ELISA kit (IDS Inc., Fountain Hills, USA).

[2] = system: human colo 205 rectal cancer cells; assay: Rectal cancer animal experiment, Colo205 xenograft model; assay type: in vivo; conditions: for MTV (n) Day 28: median tumor volume; for Deaths NTR: non-treatment-related deaths; for % TGI: percent tumor growth inhibition compared to Group 1 (vehicle), Day 28, 0.83 mg/kg po; for Deaths TR: treatment-related deaths
Experimental: Using human colo 205 rectal cancer cells as xenograft model, clinical experiments were performed with adenocarcinoma nude mice for 28 days. In this regard, the experimental method and usage are shown in Table 8 (Protocol Design for the Colo205-e347 Study) and Table 9 (Final treatment regimen at completion of the study) below.

ovariectomy (OVX) rats [3] = assay: Change in weight of organs in ovariectomized rats; assay type: in vivo, Sprague-Dawley rats
Experimental: 12 week old female SPF Sprague-Dawley rats (body weight: 250 g; n=15) were purchased from the Korean Laboratory Animals Center (Eumseong, South Korea). Breeding conditions were as follows: temperature, 23+3° C.; relative humidity, 55+10%; lighting time, 12 hours (08:00-20:00); ventilation frequency, 10-20 changes/h; illumination, 150-300 lux. The temperature and humidity were measured using a hygrometer in units of time, and there were no variables that could affect the experimental results. The animals were fed normal rodent feed and purified water.
The experimental animals were randomly divided into three groups. After adaptation, bilateral laparotomy (sham) or bilateral ovariectomy (OVX) was performed on the rats.
Changes in the body weight and feeding and water intake were measured at a regular interval.

ovariectomy (OVX) rats [4] = assay: Hematological analysis in ovariectomized rats; assay type: in vivo, Sprague-Dawley rats
Experimental: Blood samples were collected at 12 weeks post-surgery.
Hematological experiments were performed using T-540 Coulter Counter (Coulter Electronics Inc., Hialeah, USA) and ADVIA 120 Hematology System (Bayer Healthcare LLC, Tarrytown, USA). White blood cells (WBCs), differential leukocyte counts, hematocrit, red blood cells (RBCs), mean corpuscular volume (MCV), mean corpuscular hemoglobin (MCH), mean corpuscular hemoglobin concentration (MCHC), and platelet count were subjected to analysis, respectively.

ovariectomy (OVX) rats [5] = assay: Blood markers  (17β-estradiol, osteocalcin, CTx) in ovariectomized rats; assay type: in vivo, Sprague-Dawley rats; conditions: for blood 17β-estradiol reduction by ovariectomy: OVX rats; for Estradiol: serum 17β-estradiol, 12 weeks after ovariectomy, mean ± SD, 5 rats
ovariectomy (OVX) rats [6] = assay: Femur bone mineral density (DEXA), breaking force and mineral content in ovariectomized rats; assay type: in vivo, Sprague-Dawley rats; conditions: for BMD: femur
Experimental: Using dual energy X-ray absorptionmetry (DEXA; Prodigy Advance, Donga imaging, Korea), the bone mineral density (BMD) of the femur was measured. Immediately after BMD measurement, the femur was subjected to mechanical test at room temperature using a material testing machine (MZ500D; Maruto, Tokyo, Japan). For stabilization, the mid-diaphysis of the thigh was placed on two supports at an interval of 4 mm on a test device. A three-point bending test was performed in front and rear directions at the midpoint between the two supports. Breaking force was measured using software (CTR win, Ver. 1.05) to measure bone strength. […] Then, the thigh was placed at 800° C. for 16 hours, and the weight of the ash was measured. […] Calcium and phosphorus contents were measured using an atomic absorption spectrophotometer (PerkinElmer; A Analyst 100 Spectrophotometer, Boston, USA).

ovariectomy (OVX) rats [7] = assay: Blood biochemical analysis in ovariectomized rats; conditions: for bone growth marker ALP: OVX rats, serum
Experimental: Blood samples were collected at 12 weeks post-surgery. Animals were deprived of food for 16 hours and then anesthetized prior to blood sampling (Zoletile 50, Virbac, Korea). 0.5 mL of blood was collected from the abdominal artery and stored at 4° C. in a refrigerator.
A portion of the blood was used for hematological experiments, and the remaining blood was centrifuged at 3,000 rpm for 10 minutes to obtain serum. The serum was used for blood biochemical experiments and bone metabolism markers 17β-estradiol, osteocalcin and CTx analysis.
The parameters measured for blood biochemical analysis (Ciba-Corning 644 Na/K/Cl Analyzer, Ciba-Corning, Medfield, USA) were as follows: alanine aminotransferase (ALT), aspartate aminotransferase (AST), alkaline phosphatase (ALP), blood urea nitrogen (BUN), glucose, triglycerides (TG), total cholesterol (TC), high-density lipoproteins (HDL), low-density lipoproteins (LDL), total proteins (TP), albumin, calcium and phosphorus.

multiple myeloma (MM) = assay: Multiple myeloma animal experiment; assay type: in vivo, 5TGM1-grafted NSG mice
[8] = OVX rats, increased after ovariectomy
[9] = 12 weeks after ovariectomy, mean ± SD, 5 rats
[10] = serum, 12 weeks after ovariectomy, mean ± SD, 5 rats
[11] = OVX rats, treatment for 12 weeks after ovariectomy, mean ± SD, 5 rats
[12] = blood at 12 weeks post-surgery, mean ± SD, 5 rats
[13] = femur ash, reduced by ovariectomy
[14] = DEXA, treatment for 12 weeks after ovariectomy, mean ± SD, 5 rats
[15] = serum at 12 weeks post-surgery, mean ± SD, 5 rats

Sigma Anti-bonding Molecule Calcium Carbonate [SAC, reference compound]
C-terminal telopeptide / CTx (ovariectomy (OVX) rats [1]; [8]): quite reduced | osteocalcin (ovariectomy (OVX) rats [1]; [8]): considerably reduced | C-terminal telopeptide (ovariectomy (OVX) rats [1]; [9]): 4.360 ± 0.495^a ng/ml | osteocalcin (ovariectomy (OVX) rats [1]; [10]): 3.558 ± 0.154^ac ng/mL | Mean BW Nadir ([2]; lowest group mean body weight as % change from Day 1, — indicates no decrease in mean body weight was observed): −0.4% Day 2 | MTV (n) Day 28 ([2]; 0.83 mg/kg po): 896 (9) mm^3 | Deaths NTR ([2]; 0.83 mg/kg po): 1 | Regressions CR ([2]; number of complete regressions, 0.83 mg/kg po): 0 | Regressions PR ([2]; number of partial regressions, 0.83 mg/kg po): 0 | % TGI [2]: 4% | Deaths TR ([2]; 0.83 mg/kg po): 0 | Regressions TFS ([2]; tumor free survivors at end of study, 0.83 mg/kg po): 0 | Adrenal gland Left weight (ovariectomy (OVX) rats [3]; [11]): 0.0094 ± 0.0014 g | Adrenal gland Right weight (ovariectomy (OVX) rats [3]; [11]): 0.0094 ± 0.0014 g | Body weight (ovariectomy (OVX) rats [3]; [11]): 371.36 ± 9.97 g | Brain weight (ovariectomy (OVX) rats [3]; [11]): 0.5526 ± 0.02 | Femur Left weight (ovariectomy (OVX) rats [3]; [11]): 0.2935 ± 0.02 g | Femur Right weight (ovariectomy (OVX) rats [3]; [11]): 0.2902 ± 0.02 g | Kidney: Left weight (ovariectomy (OVX) rats [3]; [11]): 0.2687 ± 0.01 g | Kidney: Right weight (ovariectomy (OVX) rats [3]; [11]): 0.2626 ± 0.02 g | Liver weight (ovariectomy (OVX) rats [3]; [11]): 2.1820 ± 0.15 g | Pituitary weight (ovariectomy (OVX) rats [3]; [11]): 4.2 ± 1 mg | Spleen weight (ovariectomy (OVX) rats [3]; [11]): 0.1856 ± 0.02 g | Uterus weight (ovariectomy (OVX) rats [3]; [11]): 0.0444 ± 0.02 g | Vagina weight (ovariectomy (OVX) rats [3]; [11]): 0.0575 ± 0.02 g | Basophils (ovariectomy (OVX) rats [4]; [12]): 0.02 ± 0.04 9% | Eosinophils (ovariectomy (OVX) rats [4]; [12]): 5.04 ± 3.88% | Hematocrit (ovariectomy (OVX) rats [4]; [12]): 43.94 ± 2.18% | Lymphocytes (ovariectomy (OVX) rats [4]; [12]): 70.36 ± 8.78% | Mean corpuscular hemoglobin (ovariectomy (OVX) rats [4]; [12]): 30.50 ± 0.75 pg | Mean corpuscular hemoglobin concentration (ovariectomy (OVX) rats [4]; [12]): 57.14 ± 0.76 g/dL | Mean corpuscular volume (ovariectomy (OVX) rats [4]; [12]): 53.44 ± 1.24 fL | Monocytes (ovariectomy (OVX) rats [4]; [12]): 2.50 ± 1.44% | Neutrophils (ovariectomy (OVX) rats [4]; [12]): 21.21 ± 6.19% | Platelet (ovariectomy (OVX) rats [4]; [12]): 1297.0 ± 91.27 10^3/mm^3 | Red blood cell (ovariectomy (OVX) rats [4]; [12]): 8.23 ± 0.55 10^6/µL | White blood cell (ovariectomy (OVX) rats [4]; [12]): 4.84 ± 1.17 10^3/μl | blood 17β-estradiol reduction by ovariectomy (ovariectomy (OVX) rats [5]): quite recovered | Estradiol (ovariectomy (OVX) rats [5]): 4.217 ± 0.247^a pg/ml | calcium (ovariectomy (OVX) rats [6]; [13]): not significantly different from the Sham group | BMD (ovariectomy (OVX) rats [6]; [14]): 0.228 ± 0.012 g/cm² | bone growth marker ALP (ovariectomy (OVX) rats [7]): recovered to a normal level | ALP (ovariectomy (OVX) rats [7]; [15]): 108.2 ± 20.7 IU/l | Albumin (ovariectomy (OVX) rats [7]; [15]): 2.7 ± 0.1 g/dL | BUN (ovariectomy (OVX) rats [7]; [15]): 9.2 ± 2.4 mg/dL | GOT (ovariectomy (OVX) rats [7]; [15]): 148.0 ± 30.4 IU/l | GPT (ovariectomy (OVX) rats [7]; [15]): 22.4 ± 4.0 IU/l | Glucose (ovariectomy (OVX) rats [7]; [15]): 112.4 ± 7.7 mg/dL | HDL (ovariectomy (OVX) rats [7]; [15]): 23.8 ± 5.2 mg/dL | LDL-C (ovariectomy (OVX) rats [7]; [15]): 8.0 ± 5.2 mg/dL | Phosphorus (ovariectomy (OVX) rats [7]; [15]): 4.1 ± 0.6 mg/dL | TC (ovariectomy (OVX) rats [7]; [15]): 73.0 ± 17.3 mg/dL | TG (ovariectomy (OVX) rats [7]; [15]): 20.6 ± 7.7 mg/dL | TP (ovariectomy (OVX) rats [7]; [15]): 4.7 ± 0.2 | calcium (ovariectomy (OVX) rats [7]; [15]): 6.7 ± 0.4 mg/dL

Sigma Anti-bonding Molecule Calcium gluconate [SAC gluconate]
C-terminal telopeptide / CTx (ovariectomy (OVX) rats [1]; [8]): also reduced; also recorded: recovered to normal levels | osteocalcin (ovariectomy (OVX) rats [1]; [8]): recovered to normal levels | C-terminal telopeptide (ovariectomy (OVX) rats [1]; [9]): 4.340 ± 0.395^a ng/ml | osteocalcin (ovariectomy (OVX) rats [1]; [10]): 3.458 ± 0.254^ac ng/mL | tumor growth (FIG. 4) ([2]; Colo205 xenograft mice): tumor growth was slowed down after 12 days | tumor growth and size of tumor (FIG. 5) ([2]; Colo205 xenograft mice): tumor growth became dull and a size of tumor was reduced after 2 or 3 weeks from the dose | MTV (n) Day 28 ([2]; 0.83 mg/kg po): 864 (10) mm^3 | Deaths NTR ([2]; 0.83 mg/kg po): 0 | % TGI [2]: 8% | Deaths TR ([2]; 0.83 mg/kg po): 0 | extension of survival versus control (multiple myeloma (MM); 80 mg/kg orally 3 times per day, 83 versus 58 days): 43% | survival after tumor inoculation (multiple myeloma (MM); 80 mg/kg orally 3 times per day, control group survived 58 days): 83 days | tumor growth (FIG. 8) (multiple myeloma (MM); text result versus control group): stopped or at least became dull | weights of the organs (ovariectomy (OVX) rats [3]; OVX rats): does not significantly affect the weights of the organs | Adrenal gland Left weight (ovariectomy (OVX) rats [3]; [11]): 0.0098 ± 0.0014 g | Adrenal gland Right weight (ovariectomy (OVX) rats [3]; [11]): 0.0098 ± 0.0014 g | Brain weight (ovariectomy (OVX) rats [3]; [11]): 0.6126 ± 0.02 | Femur Left weight (ovariectomy (OVX) rats [3]; [11]): 0.3335 ± 0.02 g | Femur Right weight (ovariectomy (OVX) rats [3]; [11]): 0.3302 ± 0.02 g | Kidney: Left weight (ovariectomy (OVX) rats [3]; [11]): 0.2977 ± 0.01 g | Kidney: Right weight (ovariectomy (OVX) rats [3]; [11]): 0.2926 ± 0.02 g | Liver weight (ovariectomy (OVX) rats [3]; [11]): 2.5220 ± 0.15 g | Pituitary weight (ovariectomy (OVX) rats [3]; [11]): 4.3 ± 1 mg | Spleen weight (ovariectomy (OVX) rats [3]; [11]): 0.2056 ± 0.02 g | Uterus weight (ovariectomy (OVX) rats [3]; [11]): 0.0524 ± 0.02 g | Vagina weight (ovariectomy (OVX) rats [3]; [11]): 0.0665 ± 0.02 g | weights of the reproductive organs (uterus and vagina) (ovariectomy (OVX) rats [3]; reduced by ovariectomy): not restored | Eosinophils (ovariectomy (OVX) rats [4]; after ovariectomy): significantly increased | Basophils (ovariectomy (OVX) rats [4]; [12]): 0.03 ± 0.04 9% | Eosinophils (ovariectomy (OVX) rats [4]; [12]): 5.06 ± 2.88% | Hematocrit (ovariectomy (OVX) rats [4]; [12]): 44.94 ± 1.18% | Lymphocytes (ovariectomy (OVX) rats [4]; [12]): 73.36 ± 3.78% | Mean corpuscular hemoglobin (ovariectomy (OVX) rats [4]; [12]): 32.50 ± 1.75 pg | Mean corpuscular hemoglobin concentration (ovariectomy (OVX) rats [4]; [12]): 57.54 ± 1.76 g/dL | Mean corpuscular volume (ovariectomy (OVX) rats [4]; [12]): 54.44 ± 1.24 fL | Monocytes (ovariectomy (OVX) rats [4]; [12]): 2.60 ± 1.04% | Neutrophils (ovariectomy (OVX) rats [4]; [12]): 22.21 ± 5.19% | Platelet (ovariectomy (OVX) rats [4]; [12]): 1397.0 ± 81.27 10^3/mm^3 | Red blood cell (ovariectomy (OVX) rats [4]; [12]): 8.33 ± 0.45 10^6/µL | White blood cell (ovariectomy (OVX) rats [4]; [12]): 4.94 ± 2.17 10^3/μl | blood 17β-estradiol reduction by ovariectomy (ovariectomy (OVX) rats [5]): quite recovered | Estradiol (ovariectomy (OVX) rats [5]): 4.417 ± 0.347^a pg/ml | Phosphorus (ovariectomy (OVX) rats [6]; [13]): completely recovered | calcium (ovariectomy (OVX) rats [6]; [13]): completely recovered | BMD (ovariectomy (OVX) rats [6]; [14]): 0.238 ± 0.011 g/cm² | BMD (ovariectomy (OVX) rats [6]; reduced by ovariectomy): completely recovered; also recorded: improved BMD | femoral breaking force (ovariectomy (OVX) rats [6]; three-point bending test, reduced by ovariectomy): completely recovered | bone growth marker ALP (ovariectomy (OVX) rats [7]): recovered to a normal level | ALP (ovariectomy (OVX) rats [7]; [15]): 108.5 ± 21.7 IU/l | Albumin (ovariectomy (OVX) rats [7]; [15]): 2.8 ± 0.1 g/dL | BUN (ovariectomy (OVX) rats [7]; [15]): 9.5 ± 2.3 mg/dL | GOT (ovariectomy (OVX) rats [7]; [15]): 158.0 ± 32.4 IU/l | GPT (ovariectomy (OVX) rats [7]; [15]): 20.4 ± 4.5 IU/l | Glucose (ovariectomy (OVX) rats [7]; [15]): 110.4 ± 8.7 mg/dL | HDL (ovariectomy (OVX) rats [7]; [15]): 22.8 ± 6.2 mg/dL | LDL-C (ovariectomy (OVX) rats [7]; [15]): 8.1 ± 4.2 mg/dL | Phosphorus (ovariectomy (OVX) rats [7]; [15]): 4.2 ± 0.3 mg/dL | calcium (ovariectomy (OVX) rats [7]; [15]): 6.8 ± 0.3 mg/dL
